From patent US11352356B2, “Inhibitors of plasma kallikrein and uses thereof” (Takeda Pharmaceutical Company Limited, priority 2018, dated 2022) come the findings set out here.

The EC50 is the concentration giving half of the maximal effect.

For one assay, the target named is human activated kallikrein enzyme (Homo sapiens (Human), UniProt P03952). Description: Inhibition of human activated plasma kallikrein, fluorogenic peptide substrate assay, 500 pM enzyme format. To be noted: 500 pM activated kallikrein, 300 uM Pro-Phe-Arg-7-amido-4-methylcoumarin substrate, 30 min preincubation, 10 min reaction at RT; read-out: Primary Dose Response Assay: Average EC50. The assay is classed as biochemical. The procedure: Example compounds were evaluated for inhibition of the human activated kallikrein enzyme in two formats of an assay employing a fluorogenic peptide substrate. In one assay format, the concentrations of reagents were as follows: 20 mM Tris pH 7.5, 1 mM EDTA, 150 mM sodium chloride, 0.1% PEG-400, 0.1% Triton X-100, 500 pM activated kallikrein enzyme, 300 uM Pro-Phe-Arg-7-amido-4-methylcoumarin substrate. Prior to reaction initiation with substrate, enzyme and inhibitors were preincubated for 30 min at RT. After initiation with substrate, reactions were incubated for 10 min at RT and fluorescence emission at 460 nm from 380 nm excitation measured with a microplate reader. In another assay format, the concentrations of reagents were as follows: 20 mM Tris pH 7.5, 1 mM EDTA, 150 mM sodium chloride, 0.1% PEG-400, 0.1% Triton X-100, 5 pM activated kallikrein enzyme, 300 uM Pro-Phe-Arg-7-amido-4-methylcoumarin substrate. Prior to reaction initiation with substrate, enzyme and inhibitors were preincubated for 30 min at RT. After initiation with substrate, reactions were incubated for 18 h at RT and fluorescence emission at 460 nm from 380 nm excitation measured with a microplate reader.
Chain of human activated kallikrein enzyme (P03952 391-638): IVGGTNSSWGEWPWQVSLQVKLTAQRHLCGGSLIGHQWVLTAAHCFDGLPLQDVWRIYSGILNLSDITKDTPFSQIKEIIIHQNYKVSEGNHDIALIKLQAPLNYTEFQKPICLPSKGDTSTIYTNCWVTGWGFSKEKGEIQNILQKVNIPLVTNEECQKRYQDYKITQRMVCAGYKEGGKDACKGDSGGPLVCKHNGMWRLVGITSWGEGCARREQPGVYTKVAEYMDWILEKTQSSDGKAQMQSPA
Chain of human activated kallikrein enzyme (P03952 20-390 partner): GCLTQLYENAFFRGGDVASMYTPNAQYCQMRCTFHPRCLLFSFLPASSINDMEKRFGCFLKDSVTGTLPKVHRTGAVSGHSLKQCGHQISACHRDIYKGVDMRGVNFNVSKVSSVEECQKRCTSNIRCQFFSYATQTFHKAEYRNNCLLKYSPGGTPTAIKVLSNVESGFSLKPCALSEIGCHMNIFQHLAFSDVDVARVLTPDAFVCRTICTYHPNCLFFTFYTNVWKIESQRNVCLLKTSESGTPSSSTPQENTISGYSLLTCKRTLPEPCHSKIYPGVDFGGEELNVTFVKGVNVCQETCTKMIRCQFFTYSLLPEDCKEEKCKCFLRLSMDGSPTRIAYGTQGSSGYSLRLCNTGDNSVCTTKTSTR
“Ethyl 1-(2-((4-(((7-chloroimidazo[1,5-a]pyridin-1-yl)methyl)carbamoyl)-1H-pyrazol-1-yl)methyl)imidazo[1,2-a]pyridin-8-yl)cyclopropane-1-carboxylate [I-115]”: the EC50 is below 1 nM.

For `O=C(NCc1ncn2ccc(Cl)c(F)c12)c1cn(Cc2ccc3nccnc3c2)nn1` [I-292, N-((7-chloro-8-fluoroimidazo[1,5-a]pyridin-1-yl)methyl)-1-(quinoxalin-6-ylmethyl)-1H-1,2,3-triazole-4-carboxamide], the EC50 was in the range of 10 to 100 nM.

With `CCOC(=O)CCn1c(Cn2cc(C(=O)NCc3ncn4ccc(Cl)c(F)c34)nn2)cc2cc(C3CC3)ccc21` [I-251a, Ethyl 3-(2-((4-(((7-chloro-8-fluoroimidazo[1,5-a]pyridin-1-yl)methyl)carbamoyl)-1H-1,2,3-triazol-1-yl)methyl)-5-cyclopropyl-1H-indol-1-yl)propanoate], the EC50 fell in the range of 1 to 10 nM.

Turning to `O=C(NCc1ncn2ccc(Cl)c(F)c12)c1cn(Cc2cn3cc(C4CC4)cc(CC(F)C(=O)O)c3n2)nn1` (centres unmarked) [I-224b, 3-(2-((4-(((7-chloro-8-fluoroimidazo[1,5-a]pyridin-1-yl)methyl)carbamoyl)-1H-1,2,3-triazol-1-yl)methyl)-6-cyclopropylimidazo[1,2-a]pyridin-8-yl)-2-fluoropropanoic acid], the EC50 is below 1 nM.

With `CC(C)(C(=O)O)C(O)c1cc(C2CC2)cn2cc(Cn3cc(C(=O)NCc4ncn5ccc(Cl)c(F)c45)nn3)nc12` (centres unmarked) [I-241b, 3-(2-((4-(((7-chloro-8-fluoroimidazo[1,5-a]pyridin-1-yl)methyl)carbamoyl)-1H-1,2,3-triazol-1-yl)methyl)-6-cyclopropylimidazo[1,2-a]pyridin-8-yl)-3-hydroxy-2,2-dimethylpropanoic acid], the EC50 is below 1 nM.

Consider “N-((7-chloro-8-fluoroimidazo[1,5-a]pyridin-1-yl)methyl)-1-((8-(2-cyano-2-methylpropyl)-6-cyclopropylimidazo[1,2-a]pyridin-2-yl)methyl)-1H-pyrazole-4-carboxamide [I-237]”, for which the EC50 is below 1 nM.

For the compound `O=C(NCc1ncn2ccc(Cl)c(F)c12)c1cn(Cc2cn3ccccc3n2)nn1` [I-286, N-((7-chloro-8-fluoroimidazo[1,5-a]pyridin-1-yl)methyl)-1-(imidazo[1,2-a]pyridin-2-ylmethyl)-1H-1,2,3-triazole-4-carboxamide], the EC50 fell in the range of 10 to 100 nM.

In the case of `COc1ccc2nc(CNC(=O)c3cnn(Cc4cn5ccc(C6CC6)cc5n4)c3)cn2c1` [I-12, 1-((7-cyclopropylimidazo[1,2-a]pyridin-2-yl)methyl)-N-((6-methoxyimidazo[1,2-a]pyridin-2-yl)methyl)-1H-pyrazole-4-carboxamide], the half-maximal effective concentration (EC50) lay in the range of 10 to 100 nM.

As to `O=C(NCc1ncn2ccc(Cl)cc12)c1cnn(Cc2cn3nc(C4CC4)ccc3n2)c1` [I-11, N-((7-chloroimidazo[1,5-a]pyridin-1-yl)methyl)-1-((6-cyclopropylimidazo[1,2-b]pyridazin-2-yl)methyl)-1H-pyrazole-4-carboxamide], the concentration giving a half-maximal response (EC50) fell in the range of 1 to 10 nM.

Consider `O=C(NCc1ncn2ccc(Cl)c(F)c12)c1cn(Cc2cc3ccc(C4CC4)cc3o2)nn1` [I-219, N-((7-chloro-8-fluoroimidazo[1,5-a]pyridin-1-yl)methyl)-1-((6-cyclopropylbenzofuran-2-yl)methyl)-1H-1,2,3-triazole-4-carboxamide], for which the EC50 was in the range of 10 to 100 nM.

As for “1-(2-((4-(((7-chloroimidazo[1,5-a]pyridin-1-yl)methyl)carbamoyl)-1H-pyrazol-1-yl)methyl)imidazo[1,2-a]pyridin-8-yl)cyclopropane-1-carboxylic acid [I-116]”, the EC50 was 1 to 10 nM.

With “N-((7-chloroimidazo[1,5-a]pyridin-1-yl)methyl)-1-((6-cyclopropyl-8-(2-methoxyethoxy)imidazo[1,2-a]pyridin-2-yl)methyl)-1H-pyrazole-4-carboxamide [I-103]”, the EC50 is below 1 nM.

As to “N-((7-chloroimidazo[1,5-a]pyridin-1-yl)methyl)-1-((8-(1-(hydroxymethyl)cyclopropyl)imidazo[1,2-a]pyridin-2-yl)methyl)-1H-pyrazole-4-carboxamide [I-117]”, the EC50 is below 1 nM.

Still in this assay, the particulars now being: comparative compounds; 500 pM activated kallikrein format; read-out: Primary Dose Response Assay: Average EC50.
For the compound `Cc1ccn2cc(Cn3cc(C(=O)NCc4cnc5ccc(Cl)cn45)cn3)nc2c1` [reference compound], the concentration giving a half-maximal response (EC50) was 100 to 2000 nM.
